Test results published in US9169231B2, “Anti-obesity agent comprising compound containing benzotropolone ring” (SUNTORY HOLDINGS LIMITED, priority 2009, dated 2015).
Like-named read-outs stand apart in the source and are kept apart here.

Assays:
Assay type in all cases: biochemical
[1] = target: T1, porcine pancreatic lipase (Sus scrofa, UniProt P00591); test: Measurement of lipase inhibitory activity (Example 6; 4-MUO substrate, fluorescence)
T1 construct: purchased Sigma-Aldrich Corp
T1 sequence (P00591 1-450): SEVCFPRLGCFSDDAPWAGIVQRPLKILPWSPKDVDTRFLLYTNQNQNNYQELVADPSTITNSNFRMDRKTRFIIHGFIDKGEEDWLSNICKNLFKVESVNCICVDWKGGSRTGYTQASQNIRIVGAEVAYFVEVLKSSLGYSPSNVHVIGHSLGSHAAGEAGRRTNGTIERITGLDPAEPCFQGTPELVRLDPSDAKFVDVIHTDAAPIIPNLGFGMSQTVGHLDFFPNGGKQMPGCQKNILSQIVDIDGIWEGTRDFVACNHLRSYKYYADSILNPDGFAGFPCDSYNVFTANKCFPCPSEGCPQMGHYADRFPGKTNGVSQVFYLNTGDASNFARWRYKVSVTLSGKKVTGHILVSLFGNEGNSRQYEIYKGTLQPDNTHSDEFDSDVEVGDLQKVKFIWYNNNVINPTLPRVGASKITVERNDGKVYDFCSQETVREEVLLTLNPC
Experimental: The measurement of lipase activity was performed by using as a substrate the oleate ester of fluorescent 4-methylumbelliferone (4-MUO; Sigma-Aldrich Corp.) to measure the fluorescence of 4-methylumbelliferone produced by a reaction. […] The following were subjected to an enzymatic measurement: the substrate 4-MUO which was dissolved into a 0.1M DMSO solution followed by dilution of the solution 4000-fold with the above buffer; and as a lipase, porcine pancreatic lipase (Sigma-Aldrich Corp.) which was prepared as a 400 U/ml solution by using the above buffer likewise.
(§1) An enzymatic reaction was initiated by the following steps under 25° C. condition: adding to a 96-well microplate 50 μl of a 4-MUO buffer solution and 25 μl of distilled water (or an aqueous sample solution) for each well; mixing them; and then adding 25 μl of a lipase buffer solution to each well. After a 30-minute reaction, 100 μl of a 0.1M citric acid buffer (pH4.2) was added to terminate the reaction, and the fluorescence of 4-methylumbelliferone (excitation wavelength: 355 nm, fluorescence wavelength: 460 nm) produced by the reaction was measured with a fluorescence plate reader (Fluoroskan Asent CF from Labsystems, Inc.)

[2] = target: alfa-glucosidase; test: Measurement of alfa-glucosidase inhibitory activity (Example 11; p-nitrophenyl-alfa-D-glucopyranoside, A405)
Experimental: A […] sodium phosphate buffer was prepared by mixing a 0.1M NaH2PO4-2H2O and a 0.1M Na2HPO4.12H2O and adjusting the mixture to pH7.0, and thereto 2 g/L of bovine serum albumin (Nacalai Tesque, Inc., F-V, pH5.2, 96% purity) and 0.2 g/L of NaN3 (Nacalai Tesque, Inc., a special grade reagent) were added. To prepare an enzyme solution, alfa-glucosidase (Wako Pure Chemical Industries, Ltd., yeast-derived, 100 units/mg) was dissolved in the above buffer so as to achieve 0.5 units/mg protein/ml (100 μg/20 ml). To prepare a substrate solution, p-nitrophenyl-alfa-D-glucopyranoside (Nacalai Tesque, Inc., a special grade reagent) was dissolved in the above buffer so as to achieve 5 mM concentration (7.525 mg/5 ml).
Among the samples used for the assays, epigallocatechin-3-O-gallate (Compound 13: EGCG), a positive control, was a product from Wako Pure Chemical Industries, Ltd., and Compounds 1, 3, 4, 5, 11, 12, 14, and 15 were products that were synthesized and purified in Example 1, 2, or 7.
These samples were adjusted so as to obtain 10 mg/ml of DMSO and the solution was diluted 2-fold in 6 steps. Using a 96-well microplate, 45 μL of the enzyme solution was added to 10 μL of the sample solution. After preincubation at 37° C. for 5 minutes, 45 μL of the substrate solution was added and absorbance at 405 nm (A405 nm) was measured. After incubation at 37° C. for 5 minutes, the absorbance A405 nm was measured. Percent inhibition was calculated as a difference in A405 nm from a solution in which only DMSO was added as a control instead of a sample, and two consecutive measurements were performed for activity of each compound.

[3] = target: T2, porcine pancreatic lipase (Type VI-S) (Sus scrofa, UniProt P00591); test: Measurement of lipase activity (Example 10; 4-MUO substrate 7.5 μM, increased DMSO); conditions: Example 10 method; for IC50: substrate 7.5 μM, 25° C., 30-minute reaction, read-out: Lipase Inhibitory Activity per Mole IC50
T2 construct: purchased Sigma-Aldrich Corp. Type VI-S
T2 sequence (P00591 1-450): T1 sequence (P00591 1-450)
Experimental: The measurement of lipase activity was performed by using as a substrate the oleate ester of fluorescent 4-methylumbelliferone (4-MUO; Sigma-Aldrich Corp.) to measure the fluorescence of 4-methylumbelliferone produced by a reaction. In the measurement, 13 mM Tris-HCl (pH8.0) containing 150 mM NaCl and 1.36 mM CaCl2 was used as a buffer. The following were subjected to an enzymatic measurement: the substrate 4-MUO which was dissolved into a 0.01M DMSO solution followed by dilution of the solution 667-fold with the above buffer; and as a lipase, porcine pancreatic lipase (Sigma-Aldrich Corp.: Type VI-S) which was prepared as a 400 U/ml solution by using the above buffer likewise.
as §1, with “μl of 4-MUO buffer” for “μl of a 4-MUO buffer”, “water (or aqueous sample” for “water (or an aqueous sample”, “each well. […] After a” for “each well. After a”, “μl of 0.1M citric” for “μl of a 0.1M citric”, “from Labsystems, Inc.).” for “from Labsystems, Inc.)”
The inhibitory activities of test samples were determined as IC50 (μM), a sample […] which produces 50% inhibition, relative to the activity of a control (distilled water).

[4] = Example 6 method, substrate 12.5 μM, 25° C., 30-minute reaction, read-out: Lipase Inhibitory Activity per mole IC50

Compound | IC50 [1, 4] | IC50 ([2]; 37° C., 5 minutes incubation) | IC50 [3] | further results
O=C(O[C@@H]1Cc2c(O)cc(O)cc2O[C@@H]1c1cc(O)c(=O)c2c(O)c(O)cc([C@@H]3Oc4cc(O)cc(O)c4C[C@@H]3O)c2c1)c1cc(O)c(=O)c2c(O)c(O)cc([C@H]3Oc4cc(O)cc(O)c4C[C@H]3O)c2c1 (stereo in doubt) [Compound 6, theadibenzotropolone A] | 0.178 µM | – | – | –
O=C(O[C@@H]1Cc2c(O)cc(O)cc2O[C@@H]1c1cc(O)c(=O)c2c(O)c(O)cc([C@@H]3Oc4cc(O)cc(O)c4C[C@H]3OC(=O)c3cc(O)c(O)c(O)c3)c2c1)c1cc(O)c(=O)c2c(O)c(O)cc([C@H]3Oc4cc(O)cc(O)c4C[C@H]3OC(=O)c3cc(O)c(O)c(O)c3)c2c1 (stereo in doubt) [Compound 7, theaflavin digallate trimer 1 (TFdiGA-tri1)] | 0.135 µM | – | – | –
O=C(O[C@@H]1Cc2c(O)cc(O)cc2O[C@@H]1c1cc(O)c(=O)c2c(O)c(O)cc([C@@H]3Oc4cc(O)cc(O)c4C[C@H]3OC(=O)c3cc(O)c(=O)c4c(O)c(O)cc([C@H]5Oc6cc(O)cc(O)c6C[C@H]5OC(=O)c5cc(O)c(O)c(O)c5)c4c3)c2c1)c1cc(O)c(O)c(O)c1 (stereo in doubt) [Compound 8, theaflavin digallate trimer 2 (TFdiGA-tri2)] | 0.138 µM | – | – | –
O=c1c(O)cccc2cc(O)c(O)c(O)c12 [Compound 1, purprogallin] | 0.413 µM | 1240 µM | – | –
O=C(O)c1cc(O)c(=O)c2c(O)c(O)c(O)cc2c1 [Compound 2, purprogallin carboxylic acid] | – | – | – | IC50 [1]: 4.16 µM
O=C(O[C@@H]1Cc2c(O)cc(O)cc2O[C@@H]1c1cc(=O)c(O)c2c(O)c(O)c(O)cc2c1)c1cc(O)c(O)c(O)c1 [Compound 4, epitheaflagallin-3-O-gallate, reference compound] | – | 180 µM | 0.125 µM | –
O=C(O[C@@H]1Cc2c(O)cc(O)cc2O[C@@H]1c1ccc(O)c(O)c1)c1cc(O)c(=O)c2c(O)c(O)cc([C@H]3Oc4cc(O)cc(O)c4C[C@H]3OC(=O)c3cc(O)c(O)c(O)c3)c2c1 [Compound 5, theaflavate A] | 0.202 µM | 116 µM | – | –
O=C(O)c1cc(O)c(=O)c2c(O)c(O)cc([C@H]3Oc4cc(O)cc(O)c4C[C@H]3O)c2c1 [Compound 9, epitheaflavic acid] | 4.63 µM | – | – | –
O=c1c(O)cccc2c([C@H]3Oc4cc(O)cc(O)c4C[C@H]3O)cc(O)c(O)c12 [Compound 10, theaflavanin] | 0.984 µM | – | – | –
O=C(O)c1cc(O)c(=O)c2c(O)c(O)cc([C@H]3Oc4cc(O)cc(O)c4C[C@H]3OC(=O)c3cc(O)c(O)c(O)c3)c2c1 [Compound 11, epitheaflavic acid-3-O-gallate] | 0.266 µM | 287 µM | – | –
O=C(O[C@@H]1Cc2c(O)cc(O)cc2O[C@@H]1c1ccc(O)c(O)c1)c1cc(O)c(=O)c2c(O)c(O)c(O)cc2c1 [Compound 12, (2R,3R)-2-(3,4-dihydroxyphenyl)-5,7-dihydroxychroman-3-yl2,3,4,6-tetrahydroxy-5-oxo-5H-benzo[7]annulen-8-carboxylate] | 0.207 µM | 159 µM | 0.096 µM | Lipase inhibitory activity (in words, compared with EGCG) [3]: stronger activity than a positive control, EGCG; alfa-glucosidase inhibitory activity (in words) [2]: particularly strong activity
O=C(O[C@@H]1Cc2c(O)cc(O)cc2O[C@@H]1c1cc(O)c(O)c2c(=O)c(O)cccc12)c1cc(O)c(O)c(O)c1 [Compound 14, theaflavanin 3-O-gallate] | – | 196 µM | 0.168 µM | Lipase inhibitory activity (in words, compared with EGCG) [3]: stronger activity than a positive control, EGCG; alfa-glucosidase inhibitory activity (in words) [2]: particularly strong activity
O=C(O[C@@H]1Cc2c(O)cc(O)cc2O[C@@H]1c1cc(O)c(=O)c2c(O)c(O)ccc2c1)c1cc(O)c(O)c(O)c1 [Compound 15, EGCG-catechol] | – | 103 µM | 0.104 µM | Lipase inhibitory activity (in words, compared with EGCG) [3]: stronger activity than a positive control, EGCG
Oc1cccc(O)c1O [pyrogallol, reference compound] | 17.3 µM | – | – | –
(−)-epigallocatechin-3-O-gallate [Compound 13, reference compound] | 0.349 µM | 485 µM | 0.349 µM | –
epitheaflagallin [Compound 3, reference compound] | – | – | 0.956 µM | alfa-glucosidase inhibitory activity IC50 ([2]; 37° C., 5 minutes incubation): No
